Experimental data from paper PMC9636582 (The Journal of Biological Chemistry, 2022).
Entries after “also recorded” stand apart in the source; their conditions may differ.

Experiments:
[1] = biological target: T1, VP16-PPARα / GAL4-SRC-1 (Homo sapiens, UniProt Q07869); assay: mammalian two-hybrid assay, VP16-PPARα and coactivator GAL4-SRC-1; type: cell-based; details: 30 μM fatty acids, 1 μM GW7647, HEK293 cells, Fig. 3B
T1 construct: expressed in transfected cells; host or cells: HEK293
T1 sequence (Q07869 1-468): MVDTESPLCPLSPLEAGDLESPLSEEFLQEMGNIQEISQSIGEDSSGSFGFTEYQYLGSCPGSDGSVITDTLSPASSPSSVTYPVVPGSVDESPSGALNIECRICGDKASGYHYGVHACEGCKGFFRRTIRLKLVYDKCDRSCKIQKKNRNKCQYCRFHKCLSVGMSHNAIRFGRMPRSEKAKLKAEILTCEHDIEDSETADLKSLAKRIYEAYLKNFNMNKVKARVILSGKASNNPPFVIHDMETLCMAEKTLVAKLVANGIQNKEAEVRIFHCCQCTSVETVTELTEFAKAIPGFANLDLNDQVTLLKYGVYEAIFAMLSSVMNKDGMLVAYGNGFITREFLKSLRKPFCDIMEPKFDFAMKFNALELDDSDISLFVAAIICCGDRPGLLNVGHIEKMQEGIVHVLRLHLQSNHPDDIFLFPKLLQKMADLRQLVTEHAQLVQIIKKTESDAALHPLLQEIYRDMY
T1 sequence (Q15788 595-771 partner limits assumed): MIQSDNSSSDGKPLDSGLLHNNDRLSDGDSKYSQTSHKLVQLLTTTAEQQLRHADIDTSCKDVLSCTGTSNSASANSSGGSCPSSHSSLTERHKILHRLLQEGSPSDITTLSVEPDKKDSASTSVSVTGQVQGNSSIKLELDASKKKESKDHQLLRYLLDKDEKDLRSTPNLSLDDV

[2] = biological target: T2, GAL4-PPARδ LBD (Homo sapiens, UniProt Q03181); assay: GAL4-PPARδ LBD luciferase reporter assay in HEK293 cells; type: cell-based; details: for EC50: GAL4-PPARδ LBD, calculated from luciferase activity with Quest Graph EC50 Calculator; for PPARδ activation compared with dietary PUFAs (in words): 30 μM fatty acids, Fig. 2A; for PPARδ activation (in words): 100 μM fatty acids, Fig. 1B
T2 construct: chimeric receptors containing the LBD of various NRs; expressed in transfected cells; host or cells: HEK293
T2 sequence (Q03181 211-439 limits assumed): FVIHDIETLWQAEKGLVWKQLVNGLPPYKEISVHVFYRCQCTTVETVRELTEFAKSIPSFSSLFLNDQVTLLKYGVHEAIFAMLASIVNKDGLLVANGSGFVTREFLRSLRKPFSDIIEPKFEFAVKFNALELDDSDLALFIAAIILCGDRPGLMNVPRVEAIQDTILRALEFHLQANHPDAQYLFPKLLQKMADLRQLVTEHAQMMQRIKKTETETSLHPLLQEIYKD

[3] = biological target: T3, recombinant human PPARδ LBD protein (Homo sapiens, UniProt Q03181); assay: [14C] DHA competitive ligand-binding assay; details: 100 nM [14C] DHA, 1 μM nonlabeled fatty acids, overnight at 4 °C
T3 construct: Human PPARδ LBD (140–442) construct was cloned into a pGEX-4T1 vector; GST (N, cleaved yes); made in house; host or cells: Escherichia coli BL21 (DE3) pLys
T3 sequence (Q03181 140-441 limits assumed): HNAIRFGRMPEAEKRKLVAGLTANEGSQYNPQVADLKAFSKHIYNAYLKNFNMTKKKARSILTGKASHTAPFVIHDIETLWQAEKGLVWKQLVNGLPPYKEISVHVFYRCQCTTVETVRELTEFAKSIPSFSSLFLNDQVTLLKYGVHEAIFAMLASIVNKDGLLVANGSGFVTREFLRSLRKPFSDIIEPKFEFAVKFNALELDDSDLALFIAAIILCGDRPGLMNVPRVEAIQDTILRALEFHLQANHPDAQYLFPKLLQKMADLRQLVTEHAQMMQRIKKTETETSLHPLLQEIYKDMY
Description: To identify the mechanism underlying the activation of PPARδ by GLA-derived fatty acids, we performed a [^14C] DHA competitive ligand-binding assay describing the displacement of ligands from receptors with recombinant human PPARδ LBD protein produced by a bacterial expression system (Figs. 4, A and B and S2). PPARδ LBD or glutathione-S-transferase (GST) recombinant protein was incubated with both [^14C] […] A competitive inhibition of [^14C] DHA binding was analyzed as a direct binding to PPARδ LBD (see Experimental procedures). […] DHA binding to PPARδ LBD competitively (Fig. 4C).
Human PPARδ LBD (140–442) construct was cloned into a pGEX-4T1 vector (GE Healthcare Life Sciences) at the restriction enzyme site of SmaI and XhoI. The protein was expressed in Eschericia coli BL21 (DE3) pLys cells (Novagen) as a C-terminal fusion to a GST tag with a thrombin cleavage site. A single colony was cultured in 2 ml of LB media supplemented with 20 μg/ml of ampicillin and 30 μg/ml of chloramphenicol at 37 °C and 200 rpm for 18 h. The preculture was then transferred to 1 l of LB media until the A600 reached 0.6 to 0.8. IPTG was added to produce a final concentration of 0.4 mM, and expression was continued at 24 °C and 150 rpm for 18 h. Cells were collected using centrifugation, and pellets were resuspended in lysis buffer comprising 50 mM Tris–HCl (pH 7.5), 150 mM NaCl, 5 mM DTT, 1 mM EDTA, and 10% glycerol before sonication was performed. The supernatant was then collected using centrifugation at 100,000g and 4 °C for 70 min, after which it was loaded onto GST Accept (nacalai tesque) and equilibrated using the lysis buffer. Subsequently, the column was washed using five column volumes of the lysis buffer and thrombin cleavage buffer comprising 20 mM Tri–HCl (pH 8.4), 150 mM NaCl, 2.5 mM CaCl2, and 1 mM DTT, respectively. The GST tag was removed via digestion using biotinylated thrombin (Merck) for 18 h at 4 °C. The biotinylated thrombin was removed using Dynabeads M-280 streptavidin (Veritas). The purity of the target proteins was verified using SDS-PAGE.
A ligand-binding assay was performed as described previously with minor modifications ([72]). Briefly, purified recombinant human PPARδ LBD protein was incubated with 100 nM ([…]) [^14C] DHA in GP buffer (137 mM NaCl, 8.1 mM Na2HPO4, 2.68 mM KCl, 1.47 mM KH2PO4, 1% sodium azide, and 0.1% gelatin) overnight at 4 °C with or without various competitors (1 μM), including DHA and GLA-derived fatty acids. Unbound ligands were removed by adsorption to 3% dextran-coated charcoal, and the supernatant was collected. The PPARδ-bound [^14C] DHA was measured using a scintillation counter (PerkinElmer).

recruitment of coactivator SRC-1 to PPARα [1]	EC50 [2]	SMILES	competitive displacement of [14C] DHA binding to PPARδ LBD [3]	PPARδ activation compared with dietary PUFAs (in words) [2]	PPARδ activation (in words) [2]
not	509 µM	CCCCC/C=C\C/C=C\C/C=C\CCCCC(=O)O [GLA, γ-linolenic acid, reference compound]	only weak competition	–	–
induced coactivator-recruitment	20.3 µM	CCCCCC(=O)CCC=CCC=CCCCCC(=O)O [γKetoD, 13-oxo-cis-6,cis-9-octadecadienoic acid]	displaced [^14C] DHA binding to PPARδ LBD competitively; also recorded: comparable ligand-binding abilities to that of the C22 fatty acid DHA	activated PPARδ more robustly than DHA and eicosapentaenoic acid as well as GLA	more robust PPARδ activation than their original compound, GLA
induced coactivator-recruitment	10.6 µM	CCCCCC(O)CCC=CCC=CCCCCC(=O)O (stereo not drawn) [γHYD, 13-hydroxy-cis-6,cis-9-octadecadienoic acid]	displaced [^14C] DHA binding to PPARδ LBD competitively; also recorded: comparable ligand-binding abilities to that of the C22 fatty acid DHA	activated PPARδ more robustly than DHA and eicosapentaenoic acid as well as GLA	more robust PPARδ activation than their original compound, GLA
